These results are taken from publication PMC6254723, “Synthesis and Pharmacological Screening of Several Aroyl and Heteroaroyl Selenylacetic Acid Derivatives as Cytotoxic and Antiproliferative Agents” (Molecules, 2009).

Molecules are shown by their SMILES. Entries after “also recorded” stand apart in the source; their conditions may differ. Where two headings read alike, the source gives them in different places. Some results are limits rather than exact numbers.

In data set [1] the test system is PC-3 cell line. Particulars: cited from earlier work.
Data set [2] deals with MCF-7. Particulars: comparison drugs, MCF-7 by context; no reference given; cited from earlier work.
The test system of data set [3] is MCF-7 cells. Briefly: Cell cycle progression by flow cytometry. In kind it is cell-based, human. To be noted: MCF-7, 25 μM, 48 hours. The procedure: Cell cycle arrest is one of the targets of many anticancer drugs, including doxorubicin and camptothecin. In an effort to ascertain whether compound 1 could affect cell cycle progression in MCF-7 cells, these cells were treated with 25 μM of the corresponding compound for 48 hours and cell cycle progression was determined by flow cytometry analysis.
(§1) For breast adenocarcinoma MCF-7 cells, the apoptotic status and cell cycle analysis of the cells were determined using the Apo-Direct kit (BD Pharmingen), based on the TUNEL technique, under the conditions described by the manufacturer.

Data set [4] concerns MCF-7. In words: MTT cytotoxicity assay (NCI) in MCF-7. The format is cell-based, human. Particulars: for TGI MCF-7: dose that completely inhibits cell growth; for LD50 MCF-7: dose that kills 50% of cells; for GI50: Homo sapiens, read-out: GI50 MCF-7. The method, then:
(§2) In order to investigate the effect of the active compounds in more detail, we examined the activity on proliferation in other cancer cell lines. […] Tests were carried out in the Department of Health Science, Public University of Navarra against a panel of four human tumour cell lines: lung (HTB-54), colon (HT-29), leukaemia (CCRF-CEM) and breast adenocarcinoma (MCF-7). Cytotoxicity assays were performed based on the reactivity of MTT [3-(4,5-dimethylthiazol-2-yl)-2,5-diphenyl-tetrazolium bromide], as described by NCI [39]. […] Doxorubicin was used as a control. As guidance with regard to selectivity, all of the compounds were further examined for toxicity in a mammary gland cell culture derived from non-malignant cells (184B5). Drug concentrations ranged from 0.01 to 100 μM.
(§3) The cytotoxic effects of each substance were tested at five different doses between 0.01 and 100 μM. Each substance was initially dissolved in DMSO at a concentration of 0.1 M, and serial dilutions were prepared using culture medium. The plates with cells from the different lines, to which medium containing the substance under test were added, were incubated for 72 h at 37 °C in a humidified atmosphere containing 5% CO2. European Collection of Cell Cultures (ECACC) or American Type Culture Collection (ATCC) provided human tumour cell lines. Four cell lines were used: one human lymphocytic leukemia (CCRF-CEM) and three human solid tumours, one colon carcinoma (HT-29), one lung carcinoma (HTB-54) and one breast adenocarcinoma (MCF-7). CCRF-CEM, HT-29 and HTB-54 cells were grown in RPMI 1640 medium (Life Technologies, Carlsbad, CA, USA) supplemented with 10% foetal calf serum, 2 mM L-glutamine, 100 units/mL penicillin, 100 μg/mL streptomycin and 10 mM HEPES buffer (pH = 7.4). MCF-7 cells were grown in EMEM medium (Clonetics) supplemented with 10% foetal calf serum, 2 mM L-glutamine, 100 units/mL penicillin and 100 μg/mL streptomycin. 184B5 cells were grown Hams F-12/DMEM (50:50) supplemented as described by Li et al.. Cytotoxicity was then determined by the MTT method. […] Data were obtained from at least three independent experiments performed in quadruplicate.

The test system of data set [5] is MCF-7 cells. Briefly: Apoptosis, Apo-Direct kit (TUNEL). The format is cell-based, human. Particulars: MCF-7, 25 μM, 48 hours. The method, then: The apoptotic status of the cells after 48 hours of treatment with 25 μM of the corresponding compound was determined using the Apo-Direct kit (BD Pharmingen) based on the TUNEL technique. Camptothecin was used as a positive control.
as §1

The test system of the next data set is HTB-54. In words: MTT cytotoxicity assay (NCI) in HTB-54. To be noted: for TGI HTB-54: dose that completely inhibits cell growth; for LD50 HTB-54: dose that kills 50% of cells; for GI50: Homo sapiens, read-out: GI50 HTB-54. The format is cell-based, human. The method, then: as §2, §3
A further data set relates to HT-29. Briefly: MTT cytotoxicity assay (NCI) in HT-29. In kind it is cell-based, human. To be noted: for TGI HT-29: dose that completely inhibits cell growth; for LD50 HT-29: dose that kills 50% of cells; for GI50: Homo sapiens, read-out: GI50 HT-29. The method, then:
as §2, §3
On the technique in general: Tetrazolium assays rely on reduction of a dye to a coloured formazan, in cell work by metabolically active cells.

The test system of a further data set is CCRF-CEM. Briefly: MTT cytotoxicity assay (NCI) in CCRF-CEM. The format is cell-based, human. To be noted: 72 h; for TGI CCRF-CEM: dose that completely inhibits cell growth; for LD50 CCRF-CEM: dose that kills 50% of cells; for GI50: Homo sapiens, CCRF-CEM, read-out: GI50 CCRF-CEM. The method, then: as §2, §3
In data set [6] the test system is PC-3 cell line. Briefly: MTT cytotoxicity assay in PC-3. Particulars: Homo sapiens. The procedure:
The results are tabulated as IC50 values. All experiments were independently performed at least three times and the values were calculated after 72 hours exposure (drug concentrations of 2, 5, 7 and 10 μM).
PC-3 cells were seeded in 96-well plates (Millipore, Eschborn, Germany) at a density of 5 × 10^3 cells per well. The samples were incubated at 37 °C under 5% CO2 overnight prior to the addition of the compounds. Compounds were diluted in complete medium. After 3 days of incubation, 10 μL MTT solution (5 mg/mL in PBS) was added to the cells in each well and these were stored for an additional 4 h at 37 °C. […] The percentage of viable cells was calculated to obtain IC50-values.
PC-3 are human tumorigenic and metastatic prostate cancer cells and these were obtained from American Type Culture Collection (ATCC, Manassas, VA, USA) (passage 36).

For the next data set, the system named is 184B5. Briefly: MTT toxicity assay in non-malignant mammary gland cells 184B5. In kind it is cell-based. Particulars: for TGI 184B5 / LD50 184B5: 72 h; for LD50 184B5: dose that kills 50% of cells. The method, then: as §2, §3
Experiment in data set [7]: as above
In kind it is cell-based. To be noted: human. The procedure:
as §2, §3

The mark [8] stands for this setting: listed as benzoylselenylacetic acid.
Where [9] appears, read: PC-3, 72 h, read-out: IC50 PC-3 cell line.
Setting [10] is: PC-3, read-out: IC50 (cytotoxic activity in PC-3 cell line).
Where [11] appears, read: MCF7, 72 h, dose that inhibits 50% of cell growth.
[12] abbreviates: HTB-54, 72 h, dose that inhibits 50% of cell growth.
[13] abbreviates: HT-29, 72 h, dose that inhibits 50% of cell growth.
[14] abbreviates: dose that inhibits 50% of cell growth.

As usually defined, the IC50 is the concentration at which inhibition is half-maximal. Regarding `COc1cc([C@@H]2c3cc4c(cc3[C@@H](O[C@@H]3O[C@@H]5CO[C@@H](C)O[C@H]5[C@H](O)[C@H]3O)[C@H]3COC(=O)[C@H]23)OCO4)cc(OC)c1O` [Etoposide], in the data set with PC-3 cell line [1] (etoposide control), the half-maximal inhibitory concentration (IC50) is 13.6 ± 2.2 µM.

A word on the GI50: it is the concentration at which growth is held to half of that of the control. By TGI is commonly meant the concentration giving total growth inhibition. With `CC(=O)O[C@H]1C(=O)[C@@]2(C)[C@H]([C@H](OC(=O)c3ccccc3)[C@]3(O)C[C@H](OC(=O)[C@H](O)[C@@H](NC(=O)c4ccccc4)c4ccccc4)C(C)=C1C3(C)C)[C@]1(OC(C)=O)CO[C@@H]1C[C@@H]2O` [paclitaxel], in the data set with MCF-7 [2], the GI50 was 0.01 µM and the TGI is 20 ± 1.9 µM.

For `O=C(O)C[Se]C(=O)c1ccccc1` [Compound 1, (Benzoylselenyl)acetic acid], the “effect on cell cycle progression” value in the data set on MCF-7 cells [3] was “did not induce any specific phase arrest of the cell cycle”; in the data set on MCF-7 cells [3] (setting [8]), “nor did it perturb the cell cycle”. Further, in the data set with MCF-7 [4] (72 h), the “TGI MCF-7” value amounted to 3.69 µM. Moreover, the “LD50 MCF-7” value with MCF-7 [4] (72 h) is 58.01 µM. Moreover, the GI50 with MCF-7 [4] (MCF7, 72 h) was 0.09 µM; in the data set with HTB-54 (HTB-54, 72 h) it was 0.58 µM; with HT-29 (HT-29, 72 h), 7.39 µM; in the data set on CCRF-CEM, greater than 100 µM. The induction of apoptosis entry is listed as “induction of cell death was independent of the apoptotic process; also recorded: mechanism of action is independent of apoptosis” in the data set with MCF-7 cells [5] and “did not provoke apoptosis” in the data set on MCF-7 cells [5] (setting [8]). The “TGI HTB-54” value in the data set with HTB-54 (72 h) came to 42.47 µM. Further, the “LD50 HTB-54” value with HTB-54 (72 h) was greater than 100 µM. Also, the “TGI HT-29” value in the data set on HT-29 (72 h) amounted to 55.98 µM. Also, in the data set with HT-29 (72 h), the “LD50 HT-29” value is greater than 100 µM. Also, the “TGI CCRF-CEM” value in the data set on CCRF-CEM was greater than 100 µM. Also, the “LD50 CCRF-CEM” value with CCRF-CEM was greater than 100 µM. Besides, the IC50 in the data set on PC-3 cell line [6] (setting [9]) and with PC-3 cell line [6] (setting [10]) was 6.8 µM each time. In the data set with 184B5 (non-malignant cells, dose that completely inhibits cell growth), the “TGI 184B5” value came to 22.50 µM. In the data set on 184B5 (non-malignant cells), the “LD50 184B5” value amounted to 76.73 µM. Further, the “selectivity index (184B5/MCF-7 LD50 ratio)” value in the data set with 184B5 (LD50 in 184B5 divided by LD50 in MCF-7) stood at 1.3. For the same compound, in [7] (72 h, non-malignant cells, dose that inhibits 50% of cell growth, read-out: GI50 184B5), the 50% growth inhibitory concentration (GI50) at 72 h was determined as 1.97 µM.

Take `C[Se](=O)O` [MSA, methylseleninic acid]: the IC50 with PC-3 cell line [1] (methylseleninic acid control) is 8.38 µM.

As for `O=C(O)C[Se]C(=O)Cc1ccccc1` [Compound 11, Phenylacetoylselenylacetic acid], the “TGI MCF-7” value with MCF-7 [4] (72 h) was found to be 4.18 µM; in the data set on MCF-7 [4] (72 h, listed as benzyl), 6.19 µM. Moreover, the “LD50 MCF-7” value in the data set on MCF-7 [4] (72 h) is 53.49 µM. Besides, the GI50 is 0.006 µM in the data set with MCF-7 [4] (setting [11]), 11.1 µM in the data set on HTB-54 (setting [12]), 16.2 µM in the data set on HT-29 (setting [13]) and greater than 100 µM with CCRF-CEM (setting [14]). In the data set on HTB-54 (72 h), the “TGI HTB-54” value is greater than 100 µM. For the same compound, in the data set on HTB-54 (72 h), the “LD50 HTB-54” value was greater than 100 µM. The “TGI HT-29” value in the data set with HT-29 (72 h) amounted to 72.19 µM. Besides, in the data set on HT-29 (72 h), the “LD50 HT-29” value is greater than 100 µM. Moreover, in the data set with CCRF-CEM, the “TGI CCRF-CEM” value is greater than 100 µM. For the same compound, the “LD50 CCRF-CEM” value in the data set on CCRF-CEM is greater than 100 µM. The half-maximal inhibitory concentration (IC50) in the data set on PC-3 cell line [6] (setting [9]) and in the data set with PC-3 cell line [6] (setting [10]) was 2.9 µM each time. Besides, the “LD50 184B5” value in the data set with 184B5 (non-malignant cells) is 72.34 µM. Further, the “TGI 184B5” value with 184B5 (human) was 9.64 µM. This compound also showed a concentration for 50% growth inhibition (GI50) at 72 h in data set [7] of 1.05 µM.

Consider `CCC1=C[C@@H]2CN(C1)Cc1c([nH]c3ccccc13)[C@@](C(=O)OC)(c1cc3c(cc1OC)N(C)[C@H]1[C@@](O)(C(=O)OC)[C@H](OC(C)=O)[C@]4(CC)C=CCN5CC[C@]31[C@@H]54)C2` [vinorelbine], for which, in the data set on MCF-7 [2], the GI50 is 5 ± 1.3 µM and the TGI is 100 ± 10.2 µM.

As for `COc1cc(OC)cc(C(=O)[Se]CC(=O)O)c1` [Compound 14, (3,5-dimethoxy-benzoylselenyl)acetic acid], the “TGI MCF-7” value with MCF-7 [4] (72 h) is 6.19 µM; in the data set on MCF-7 [4] (72 h, listed as 3,5-dimethoxyphenyl), 4.18 µM. In addition, the “LD50 MCF-7” value with MCF-7 [4] (72 h) came out at 52.65 µM. The GI50 is 1.57 µM in the data set with MCF-7 [4] (setting [11]), 16.8 µM in the data set on HTB-54 (setting [12]), 5.99 µM with HT-29 (setting [13]) and greater than 100 µM in the data set on CCRF-CEM (setting [14]). For the same compound, the “TGI HTB-54” value in the data set with HTB-54 (72 h) was greater than 100 µM. Besides, in the data set with HTB-54 (72 h), the “LD50 HTB-54” value is greater than 100 µM. In addition, the “TGI HT-29” value in the data set on HT-29 (72 h) stood at 47.42 µM. The “LD50 HT-29” value in the data set on HT-29 (72 h) was greater than 100 µM. The “TGI CCRF-CEM” value in the data set on CCRF-CEM is greater than 100 µM. The “LD50 CCRF-CEM” value in the data set with CCRF-CEM was greater than 100 µM. For the same compound, the IC50 with PC-3 cell line [6] (setting [9]) and in the data set with PC-3 cell line [6] (setting [10]) was 4 µM each time. Besides, in the data set on 184B5 (non-malignant cells), the “LD50 184B5” value is 62.55 µM. Further, the “TGI 184B5” value in the data set on 184B5 (human) was 8.21 µM. The same compound had a GI50 at 72 h in data set [7] of 0.0009 µM.
